Test results: patent US20130338092A1, “COMPOUNDS AND METHODS FOR TARGETING LEUKEMIC STEM CELLS” (The Broad Institute, Inc., priority 2011, published 2013)
“Also recorded” adds a separate entry of the source.

How the values were obtained:
[1] = tested on: OP9 stromal monolayers; test: Stromal viability in pulse treatment experiment (CellTiter-Glo); assay type: cell-based, murine; conditions: compared to DMSO control
Method: OP9 or MSCs were plated in white, 384 well plates (3570, Corning) and 24 hours later compounds were added in 8-point dose as described. Three days later the plates were put out to cool to room temperature, the cultures were aspirated, and 50 μl of CellTiterGlo reagent (G7570, Promega) diluted 1:3 in PBS was added to each well. The plates were covered and placed on an orbital shaker for 20 minutes then analyzed using either an LJL Analyst (LJL) or Envision (Perkin Elmer).
13,500 GFP+ OP9 cells were plated onto gelatin coated, 96 well black, clear bottom plates (3904, Corning). 24 hours later, 2,000 sorted leukemia cells were plated onto the monolayer. Compounds (5 μM) were added either 1 (early pulse) or 4 (late pulse) days later at the same 5 μM working concentration of main coculture screen. In both cases, compounds were removed after 24 hours of treatment, the wells were washed, and fresh media without compound was added. The plates were imaged and analyzed 6 days after leukemia cell plating. The viability of the stroma was assessed using stromal monolayers grown alone and treated in parallel, with the same readout described in the stromal toxicity screen above.

[2] = tested on: primary CD34+ cells from normal human cord blood; test: Human CD34+ CAFC assay, normal cells; conditions: 1.25 μM to 10 μM, 18 hours exposure
Method: Samples were centrifuged over Ficoll-Paque PLUS (GE Heathcare) step gradient (2000×g for 30 min in 50 ml tubes) to obtain mononuclear cells and then CD34^+ cells were selected with immunomagnetic beads (MACS Cell Separation, Miltenyi Biotec, Auburn, Calif.), except in one case, NPM1 mutation, which was CD34^− by flow cytometry and mononuclear cells were used. 50,000 cells were placed into 12.5 cm^2 flasks (Becton Dickinson Labware, Franklin Lakes, N.J.) in co-culture with the MS-5 mouse bone marrow-derived stromal cell line (kindly provided by Dr. Itoh, Dept. of Biology, Niigata University, Japan) and DMSO control and the number of final cobblestones was later read. The number of cells needed to form one cobblestone was then placed in triplicate for each sample with each drug at serial drug dilutions from 10 μM to 0.63 μM as well as with DMSO 0.5% for control purposes and incubated overnight with Iscove's modified Dulbecco's medium (IMDM, in house media preparation laboratory)+20% fetal calf serum (FCS, Atlanta Biologicals, Lawrenceville, Ga.) with glutamine (2 mM/ml, in house media preparation laboratory), monothioglycerol (MTG, 10 nM/ml, Sigma Cell Culture, St. Louis Mo.), c-Kit ligand (20 ng/ml, Amgen, Thousand Oaks, Calif.), Flt ligand (20 ng/ml, Imclone, Bridgewater, N.J.), TPO (20 ng/ml, Amgen) and IL-3 (20 ng/ml, Amgen). […]
The cells were treated with compound or DMSO carrier control at four doses (ranging from 1.25 μM to 10 μM) in triplicate for 18 hours, washed thoroughly, then plated onto human stromal MS-5 monolayers (Itoh, K., Tezuka, H., Sakoda, H., Konno, M., Nagata, K., Uchiyama, T., Uchino, H., and Mori, K. J. (1989). Exp Hematol 17, 145-153.) and maintained in coculture with one subsequent half media change. After 5 weeks (2 weeks for the FLT3-ITD sample (Moore, M. A., Dorn, D. C., Schuring a, J. J., Chung, K. Y., and Morrone, G. (2007). Exp Hematol 35, 105-116.)), cobblestone formation was determined, and dose-response curves against the 7 cell types were generated for each compound.

[3] = tested on: CD45.1+ HSPCs; set-up: species or system mice; conditions: mouse, in vivo
Method: Heterotypic cocultures containing dsRed+ LSCs, CD45.1+ HSPCs, and GFP+ MSCs were exposed to compounds for 48 hours, then transplanted en masse post trypsinization with untreated wild-type helper splenocytes (CD45.1+CD45.2+) into lethally irradiated, wildtype recipient animals (CD45.2+). Latency of leukemia onset was compared for mice receiving cocultures treated with compound compared to DMSO control treated cocultures. The engraftment of the normal HSPCs treated and injected along with the leukemia cells was quantified by FACs analysis of the bone marrow of mice alive at the 16 week endpoint across treatments.
As in vivo readouts may better reflect hematopoietic stem cell function compared to in vitro readouts (Purton, L. E., and Scadden, D. T. (2007). Cell Stem Cell 1, 263-270.; Bock, T. A. (1997). Stem Cells 15 Suppl 1, 185-195.), our results were confirmed using murine transplantation studies. […] Compounds that increase disease latency relative to DMSO control are considered active. […] Bone marrow repopulating ability is a functional measure of normal HSPCs, assessed by quantifying long-term engraftment and differentiation patterns in recipient mice (Bock, T. A. (1997). Stem Cells 15 Suppl 1, 185-195.; Nguyen, L. V., Vanner, R., Dirks, P., and Eaves, C. J. (2012). Nat Rev Cancer 12, 133-143.). […]

[4] = tested on: LSC (dsRed+); test: Stromal pretreatment of primary MSC stroma, triple coculture, leukemia cells; assay type: cell-based, murine; conditions: stroma pretreated three days, LSCs and HSPCs comingled
Method: In the context of primary MSC stroma (uncolored), both HSPCs (from actin-GFP mice (000329, Jackson Lab)) and LSC (dsRed+) populations were comingled together in a ratio of 2:1 within the same 384format wells. As in the stromal pretreatment screen with OP9 stroma, BRD7116 was added for three days to the stroma prior to the addition of the hematopoietic populations. 5 days after compound addition, wells were imaged in the red and green channels and total cells were counted using MetaXpress software from MDC.
This experiment was also performed in the context of primary MSC stroma. Both HSPCs and LSC populations were comingled together in the same wells, as a “triple” coculture.

[5] = tested on: primary leukemia cells; test: Gene expression profiling with GSEA; assay type: cell-based, murine; conditions: 5 μM, 6 hours in suspension
Method: To elucidate potential cell-autonomous effects of BRD7116, primary leukemia cells were exposed to either 5 μM BRD7116 or DMSO vehicle for 6 hours in suspension in IMDM (12440053, Invitrogen) with 10% FBS, 10 ng/ml mIL3, and 1× Pen-Strep.
RNA was isolated using a trizol-chloroform protocol or with a Qiagen RNeasy kit (74104, Qiagen). Total RNA from the samples was normalized to 20 ng/μl and the Illumina® TotalPrep™-96 RNA Amplification Kit (Applied Biosystems, PN #4393543) protocol was used for amplification in a semi automated process. The total RNA underwent reverse transcription to synthesize first-strand cDNA. This cDNA was then converted into a double-stranded DNA template for transcription. In vitro transcription synthesized aRNA and incorporated a biotin-conjugated nucleotide. […] Illumina's BeadArray Reader was used to measure the fluorescence intensity at each addressed bead location.
Gene-expression profiles were generated by using mouse ref-8 DNA microarray (Illumina) according to manufacturer's instruction. […] The resulting data was analyzed using Gene Set Enrichment Analysis method (Subramanian, A., Tamayo, P., Mootha, V. K., Mukherjee, S., Ebert, B. L., Gillette, M. A., Paulovich, A., Pomeroy, S. L., Golub, T. R., Lander, E. S., et al. (2005). Proc Natl Acad Sci USA 102, 15545-15550.). […]

Compound | stromal viability after 24 hour pulse (CellTiter-Glo) [1] | toxicity against normal primary CD34+ cells (human CAFC) [2] | differentiation patterns of engrafted HSPCs [3] | leukemia cells on pretreated MSC stroma [4] | gene expression changes (GSEA) [5]
CCC(C)C(=O)OC1CC(C)C=C2C=CC(C)C(CCC(O)CC(O)CC(=O)O)C21 (centres unmarked) [Lovastatic acid] | no effect on stromal viability | neither compound showed toxicity | normal differentiation patterns | – | –
CC1(C)C(C(=O)Nc2ccc(S(=O)(=O)c3ccc(NC(=O)C4C(C)(C)C4(C)C)cc3)cc2)C1(C)C [BRD7116] | – | – | – | selective inhibition of the leukemia cells; also recorded: an inhibition of the leukemia cells was observed | induces an AML differentiation program; also recorded: induction of an AML differentiation program
